Experimental data as given in ChEMBL document CHEMBL5046316, “Structure-Based Optimization of a Fragment-like TLR8 Binding Screening Hit to an In Vivo Efficacious TLR7/8 Antagonist” (ACS Med Chem Lett, 2022).

How the values were obtained:
[1] = Dissociation constant, pKa of the compound by UV spectrometric titration method; type: physicochemical
Toll-like receptor 8 [2] = biological target: T1, Toll-like receptor 8 (Homo sapiens, UniProt Q9NR97); test: Antagonist activity at human TLR8 expressed in human PBMC cells assessed as inhibition of ssRNA stimulated TNF level preincubated for 30 mins followed by stimulation and measured after 20 hrs by multiplate reader assay; type: cell-based
T1 sequence (Q9NR97 whole entry): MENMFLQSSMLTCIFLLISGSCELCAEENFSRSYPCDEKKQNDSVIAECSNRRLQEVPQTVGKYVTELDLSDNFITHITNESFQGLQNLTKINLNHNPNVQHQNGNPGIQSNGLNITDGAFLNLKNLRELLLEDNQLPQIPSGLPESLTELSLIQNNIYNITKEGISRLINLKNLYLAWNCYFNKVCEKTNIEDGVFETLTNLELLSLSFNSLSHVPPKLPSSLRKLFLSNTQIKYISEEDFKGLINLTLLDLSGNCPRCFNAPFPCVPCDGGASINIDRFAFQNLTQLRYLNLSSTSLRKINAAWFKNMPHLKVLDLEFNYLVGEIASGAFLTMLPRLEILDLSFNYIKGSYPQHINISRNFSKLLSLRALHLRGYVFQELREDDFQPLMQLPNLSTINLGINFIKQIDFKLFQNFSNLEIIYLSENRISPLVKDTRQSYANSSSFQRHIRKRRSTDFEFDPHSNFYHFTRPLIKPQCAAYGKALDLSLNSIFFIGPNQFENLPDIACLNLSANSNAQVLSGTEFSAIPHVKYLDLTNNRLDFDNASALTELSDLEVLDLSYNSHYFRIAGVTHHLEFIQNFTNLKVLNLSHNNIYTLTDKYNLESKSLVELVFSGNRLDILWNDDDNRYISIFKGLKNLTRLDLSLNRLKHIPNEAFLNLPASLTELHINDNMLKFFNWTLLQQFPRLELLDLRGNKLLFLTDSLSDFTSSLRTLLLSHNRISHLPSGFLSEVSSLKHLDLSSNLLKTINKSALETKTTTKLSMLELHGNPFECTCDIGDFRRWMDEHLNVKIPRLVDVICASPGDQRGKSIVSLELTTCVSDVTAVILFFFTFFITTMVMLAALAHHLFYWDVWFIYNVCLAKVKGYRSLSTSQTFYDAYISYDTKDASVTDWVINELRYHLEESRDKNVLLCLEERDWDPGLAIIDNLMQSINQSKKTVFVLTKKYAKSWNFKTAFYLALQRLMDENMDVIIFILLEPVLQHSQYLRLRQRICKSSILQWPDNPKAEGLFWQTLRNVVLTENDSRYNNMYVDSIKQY

Toll-like receptor 8 [3] = biological target: T1, Toll-like receptor 8; test: Antagonist activity at human TLR8 expressed in Drosophila S2 by TR-FRET assay
Toll-like receptor 7 = biological target: T2, Toll-like receptor 7 (Homo sapiens, UniProt Q9NYK1); test: Antagonist activity at human TLR7 expressed in human PBMC cells assessed as inhibition of ssRNA stimulated IFNalpha level preincubated for 30 mins followed by stimulation and measured after 20 hrs by AlphaLISA method; type: cell-based
T2 sequence (Q9NYK1 whole entry): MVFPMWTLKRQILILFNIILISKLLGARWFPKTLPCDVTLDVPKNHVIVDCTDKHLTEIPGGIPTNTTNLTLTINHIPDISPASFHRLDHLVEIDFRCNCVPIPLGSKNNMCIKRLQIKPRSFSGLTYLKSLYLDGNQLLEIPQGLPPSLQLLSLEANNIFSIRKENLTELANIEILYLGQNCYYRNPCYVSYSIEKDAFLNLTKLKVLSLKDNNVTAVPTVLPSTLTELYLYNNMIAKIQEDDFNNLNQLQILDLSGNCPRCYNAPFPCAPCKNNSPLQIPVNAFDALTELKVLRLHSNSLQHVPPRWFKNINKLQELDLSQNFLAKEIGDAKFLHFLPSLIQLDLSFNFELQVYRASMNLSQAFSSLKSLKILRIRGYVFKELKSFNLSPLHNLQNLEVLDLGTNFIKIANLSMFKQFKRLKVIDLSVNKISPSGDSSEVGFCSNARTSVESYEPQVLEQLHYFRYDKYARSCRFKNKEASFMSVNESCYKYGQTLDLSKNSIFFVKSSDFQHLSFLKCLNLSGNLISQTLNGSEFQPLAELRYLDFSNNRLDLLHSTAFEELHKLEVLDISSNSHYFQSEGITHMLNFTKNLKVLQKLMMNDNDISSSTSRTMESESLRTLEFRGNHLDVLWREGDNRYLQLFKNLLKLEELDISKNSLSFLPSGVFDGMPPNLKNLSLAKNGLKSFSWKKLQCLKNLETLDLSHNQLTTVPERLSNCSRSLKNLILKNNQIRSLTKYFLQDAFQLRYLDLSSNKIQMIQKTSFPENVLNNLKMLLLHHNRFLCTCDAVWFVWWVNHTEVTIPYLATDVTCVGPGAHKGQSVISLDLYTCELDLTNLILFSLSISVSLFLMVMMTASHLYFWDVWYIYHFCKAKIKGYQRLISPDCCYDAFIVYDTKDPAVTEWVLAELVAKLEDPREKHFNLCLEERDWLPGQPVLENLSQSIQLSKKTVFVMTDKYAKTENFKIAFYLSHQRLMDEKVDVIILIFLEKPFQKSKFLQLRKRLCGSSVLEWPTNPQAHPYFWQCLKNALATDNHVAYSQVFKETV

[4] = biological target: Voltage-gated inwardly rectifying potassium channel KCNH2 (Homo sapiens, UniProt Q12809); test: Inhibition of human ERG; type: toxicity
Chain of Voltage-gated inwardly rectifying potassium channel KCNH2 (Q12809 whole entry): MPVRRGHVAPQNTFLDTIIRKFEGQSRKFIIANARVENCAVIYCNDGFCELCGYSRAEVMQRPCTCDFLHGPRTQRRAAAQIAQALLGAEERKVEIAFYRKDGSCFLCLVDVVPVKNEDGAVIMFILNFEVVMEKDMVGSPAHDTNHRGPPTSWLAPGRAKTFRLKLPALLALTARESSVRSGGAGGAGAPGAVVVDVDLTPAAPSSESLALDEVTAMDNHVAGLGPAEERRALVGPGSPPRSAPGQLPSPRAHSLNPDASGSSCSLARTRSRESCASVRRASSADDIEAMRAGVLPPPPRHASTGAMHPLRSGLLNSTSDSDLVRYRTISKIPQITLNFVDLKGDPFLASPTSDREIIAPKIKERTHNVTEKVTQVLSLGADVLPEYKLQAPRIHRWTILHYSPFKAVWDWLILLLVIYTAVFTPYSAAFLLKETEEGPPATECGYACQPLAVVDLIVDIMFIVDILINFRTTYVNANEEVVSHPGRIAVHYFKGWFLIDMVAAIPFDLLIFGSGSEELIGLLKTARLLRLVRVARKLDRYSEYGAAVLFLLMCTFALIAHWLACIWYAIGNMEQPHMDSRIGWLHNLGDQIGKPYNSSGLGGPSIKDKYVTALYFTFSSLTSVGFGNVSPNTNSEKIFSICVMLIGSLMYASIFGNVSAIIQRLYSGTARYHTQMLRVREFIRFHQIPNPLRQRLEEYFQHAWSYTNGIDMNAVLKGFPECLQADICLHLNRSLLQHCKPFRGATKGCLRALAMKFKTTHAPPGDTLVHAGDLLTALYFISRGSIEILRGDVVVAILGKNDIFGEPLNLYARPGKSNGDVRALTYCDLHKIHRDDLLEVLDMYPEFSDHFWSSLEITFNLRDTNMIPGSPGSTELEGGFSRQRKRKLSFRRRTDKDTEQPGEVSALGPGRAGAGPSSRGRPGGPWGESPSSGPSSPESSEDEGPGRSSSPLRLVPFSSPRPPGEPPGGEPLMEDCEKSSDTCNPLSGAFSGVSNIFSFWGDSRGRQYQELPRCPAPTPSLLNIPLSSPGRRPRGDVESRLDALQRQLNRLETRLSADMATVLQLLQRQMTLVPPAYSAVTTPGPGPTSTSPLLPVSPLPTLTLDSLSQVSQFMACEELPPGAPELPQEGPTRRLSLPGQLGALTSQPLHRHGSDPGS

[5] = Volume of distribution at steady state in C57BL/6 mouse at 3 mg/kg, po or 1 mg/kg, iv administered as cassette dose measured upto 24 hrs by LC/MS/MS analysis; type: ADME, organism-based; settings: in vivo, read-out: Vdss
[6] = Dose normalized Cmax in C57BL/6 mouse at 3 mg/kg, po and 1 mg/kg, iv administered as cassette dose measured upto 24 hrs by LC/MS/MS analysis; type: ADME, organism-based; settings: in vivo
[7] = Dose normalized AUC in C57BL/6 mouse at 3 mg/kg, po and 1 mg/kg,iv administered as cassette dose measured upto 24 hrs by LC/MS/MS analysis; type: ADME, organism-based; parameters: dose 3 mg/kg, time <=24; settings: in vivo
[8] = Clearance in C57BL6 mouse at 3 mg/kg, po or 1mg/kg, iv administered as cassette dose measured upto 24 hrs by LC/MS/MS analysis; type: ADME, organism-based; settings: in vivo
[9] = MRT in C57BL/6 mouse at 3 mg/kg, po or 1 mg/kg, iv administered as cassette dose measured upto 24 hrs by LC/MS/MS analysis; type: ADME, organism-based; settings: in vivo
Cytochrome P450 3A4 = Cytochrome P450 3A4 (Homo sapiens, UniProt P08684); test: Inhibition of CYP3A4 (unknown origin); type: ADME
Chain of Cytochrome P450 3A4 (P08684 whole entry): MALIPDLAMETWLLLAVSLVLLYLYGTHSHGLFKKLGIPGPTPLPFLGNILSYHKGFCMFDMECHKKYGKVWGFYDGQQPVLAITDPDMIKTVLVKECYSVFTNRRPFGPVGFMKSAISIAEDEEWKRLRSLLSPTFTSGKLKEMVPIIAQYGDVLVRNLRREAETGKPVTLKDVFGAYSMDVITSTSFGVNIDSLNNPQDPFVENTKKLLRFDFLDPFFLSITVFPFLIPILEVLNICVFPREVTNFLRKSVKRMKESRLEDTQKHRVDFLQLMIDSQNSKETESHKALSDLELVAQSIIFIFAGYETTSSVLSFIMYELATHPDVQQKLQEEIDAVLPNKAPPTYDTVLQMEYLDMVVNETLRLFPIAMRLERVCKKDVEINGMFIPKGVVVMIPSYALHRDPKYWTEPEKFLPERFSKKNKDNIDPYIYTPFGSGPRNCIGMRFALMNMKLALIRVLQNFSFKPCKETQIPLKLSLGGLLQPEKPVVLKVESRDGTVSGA

[10] = Octanol/water partition coefficient, logD of compound at pH 7.4 measured after 4 hrs by shake flask method; type: physicochemical
[11] = Oral bioavailability in C57BL/6 mouse at 3 mg/kg administered as cassette dose measured upto 24 hrs by LC/MS/MS analysis; type: ADME, organism-based; settings: in vivo
[12] = Permeability of compound in dog MDCK cells; type: ADME, cell-based, Canis lupus familiaris; settings: read-out: permeability
Toll-like receptor 9 = biological target: T3, Toll-like receptor 9 (Homo sapiens, UniProt Q9NR96); test: Antagonist activity at human TLR9 expressed in human PBMC cells assessed as inhibition of ODN2216 stimulated IFNalpha level preincubated for 30 mins followed by stimulation and measured after 20 hrs by AlphaLISA method; type: cell-based
T3 sequence (Q9NR96 whole entry): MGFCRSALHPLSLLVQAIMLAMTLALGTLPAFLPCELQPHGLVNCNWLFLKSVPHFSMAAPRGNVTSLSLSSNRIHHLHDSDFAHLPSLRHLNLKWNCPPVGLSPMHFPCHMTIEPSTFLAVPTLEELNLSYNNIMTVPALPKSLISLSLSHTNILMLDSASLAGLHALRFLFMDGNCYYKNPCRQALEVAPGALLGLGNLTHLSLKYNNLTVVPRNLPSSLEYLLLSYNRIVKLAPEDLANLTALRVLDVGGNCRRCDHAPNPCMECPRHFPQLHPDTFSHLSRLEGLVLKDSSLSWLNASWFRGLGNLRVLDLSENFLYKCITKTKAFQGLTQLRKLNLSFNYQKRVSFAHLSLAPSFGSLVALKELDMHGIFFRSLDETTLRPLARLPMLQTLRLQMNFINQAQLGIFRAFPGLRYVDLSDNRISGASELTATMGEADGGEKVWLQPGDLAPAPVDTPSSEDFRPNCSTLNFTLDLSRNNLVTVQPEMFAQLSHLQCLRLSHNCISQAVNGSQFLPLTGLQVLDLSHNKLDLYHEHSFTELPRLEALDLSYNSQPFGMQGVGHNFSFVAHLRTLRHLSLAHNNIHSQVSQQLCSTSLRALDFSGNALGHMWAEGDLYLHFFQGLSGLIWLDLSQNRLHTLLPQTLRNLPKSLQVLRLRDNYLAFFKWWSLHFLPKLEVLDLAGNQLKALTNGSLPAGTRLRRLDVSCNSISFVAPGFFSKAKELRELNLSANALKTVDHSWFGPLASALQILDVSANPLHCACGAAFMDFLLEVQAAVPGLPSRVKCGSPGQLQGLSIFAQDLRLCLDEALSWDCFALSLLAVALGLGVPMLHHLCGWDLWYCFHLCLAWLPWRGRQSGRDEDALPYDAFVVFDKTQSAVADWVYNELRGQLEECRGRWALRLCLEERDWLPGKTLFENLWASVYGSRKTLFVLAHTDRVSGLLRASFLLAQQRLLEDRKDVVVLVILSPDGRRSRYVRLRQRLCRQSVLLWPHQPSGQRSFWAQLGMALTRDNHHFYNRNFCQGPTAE

Toll-like receptor 4 = Toll-like receptor 4 (Homo sapiens, UniProt O00206); test: Antagonist activity at human TLR4 expressed in human PBMC cells assessed as inhibition of LPS stimulated TNF level preincubated for 30 mins followed by stimulation and measured after 20 hrs by multiplate reader assay; type: cell-based
Chain of Toll-like receptor 4 (O00206 whole entry): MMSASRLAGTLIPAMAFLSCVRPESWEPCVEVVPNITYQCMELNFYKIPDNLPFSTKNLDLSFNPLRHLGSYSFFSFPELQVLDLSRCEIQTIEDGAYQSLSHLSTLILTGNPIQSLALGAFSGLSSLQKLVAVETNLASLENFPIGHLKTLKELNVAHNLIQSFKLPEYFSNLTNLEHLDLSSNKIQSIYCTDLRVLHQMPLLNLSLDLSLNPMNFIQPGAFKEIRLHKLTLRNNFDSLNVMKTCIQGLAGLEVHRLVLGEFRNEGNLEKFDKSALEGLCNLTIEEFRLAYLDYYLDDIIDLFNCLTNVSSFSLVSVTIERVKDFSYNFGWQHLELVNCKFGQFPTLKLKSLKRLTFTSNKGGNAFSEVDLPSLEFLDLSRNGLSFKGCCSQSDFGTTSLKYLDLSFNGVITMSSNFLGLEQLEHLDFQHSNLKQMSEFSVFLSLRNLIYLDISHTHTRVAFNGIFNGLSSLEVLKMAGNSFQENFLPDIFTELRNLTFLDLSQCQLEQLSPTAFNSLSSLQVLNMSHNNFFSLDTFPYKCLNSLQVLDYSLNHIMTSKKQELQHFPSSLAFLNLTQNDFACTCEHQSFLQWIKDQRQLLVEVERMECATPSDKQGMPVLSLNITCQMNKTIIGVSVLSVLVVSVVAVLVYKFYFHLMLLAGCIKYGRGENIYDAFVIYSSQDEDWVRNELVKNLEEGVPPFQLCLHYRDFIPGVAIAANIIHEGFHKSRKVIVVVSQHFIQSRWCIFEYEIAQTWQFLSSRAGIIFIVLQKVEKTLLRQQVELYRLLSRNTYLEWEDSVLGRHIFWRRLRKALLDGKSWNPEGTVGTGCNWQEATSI

Row | Structure (SMILES) | pKa [1] | IC50 (Toll-like receptor 8 [2]) [nM] | IC50 (Toll-like receptor 8 [3]) [nM] | IC50 (Toll-like receptor 7) [nM] | also measured
1 | COc1cc2c(C(=O)N3CCN(C)CC3)n[nH]c2cc1-c1cc(C)nc(C)c1 | 6.7 | 2.5 | 23 | – | –
2 | COc1cc2c(C(=O)N3CCN(C)CC3)n[nH]c2cc1-c1ccnc(C)c1F | 3.7 | 1.2 | 14 | > 980 | –
3 | Cc1cc(-c2cc3[nH]nc(N[C@H]4CCNC[C@@H]4F)c3cc2C2CC2)cc(C)n1 | 6.7 | – | – | 9 | –
4 | Cc1nccc(-c2cc3[nH]nc(N[C@H]4CCNC[C@@H]4F)c3cc2C2CC2)c1F | 3.9 | – | – | 0.1 | IC50 [4]: 19000 nM; Vd [5]: 3.1 L/kg; Cp(f)/dose [6]: 155 nM/mg/kg; AUC [7]: 635 nM·h/mg/kg; clearance [8]: 28 mL/min/kg; MRT [9]: 1.8 h; IC50 (Cytochrome P450 3A4): 4500 nM; logD at 4 h [10]: 2.5; bioavailability [11]: 43%
5 | COc1cc2cc[nH]c2cc1-c1ccncc1 | 5.8 | 3600 | 2 | 1700 | Papp [12]: 33 ×10⁻⁶ cm/s; IC50 (Toll-like receptor 9): > 3600 nM; IC50 (Toll-like receptor 4): > 10000 nM
6 | COc1cc2c(C(=O)N3CCN(C)CC3)n[nH]c2cc1-c1ccncc1 | 5.3 | – | – | 220 | –
7 | COc1cc2c(NC3CCN(C)CC3)n[nH]c2cc1-c1cc(C)nc(C)c1 | 6.7 | – | – | – | –
8 | Cc1cc2c(NC3CCN(C)CC3)n[nH]c2cc1-c1ccnc(C)c1F | 3.9 | – | – | 1 | –
9 | COc1cc2c(NC3CCN(C)CC3)n[nH]c2cc1-c1ccnc(C)c1F | 4 | – | – | – | –
10 | COc1cc2c(NC3CCN(C)CC3)n[nH]c2cc1-c1ccncc1 | 5.2 | – | – | 3 | –
11 | COc1cc(-c2cc3[nH]nc(NC4CCN(C)CC4)c3cc2OC)ccn1 | 3.4 | – | – | 11 | –
12 | COc1cc2cn[nH]c2cc1-c1ccncc1 | 5.4 | > 9300 | 51 | – | Papp [12]: 38 ×10⁻⁶ cm/s
13 | Cc1nccc(-c2cc3[nH]nc(NC4CCN(C)CC4)c3cc2C2CC2)c1F | 3.9 | 0.08 | 3.6 | 0.39 | IC50 [4]: 11000 nM; Vd [5]: 4.4 L/kg; Cmax/dose [6]: 113 nM/mg/kg; AUC [7]: 485 nM·h/mg/kg; clearance [8]: 49 mL/min/kg; MRT [9]: 1.5 h; IC50 (Cytochrome P450 3A4): > 25000 nM; logD at 4 h [10]: 2.5; bioavailability [11]: 53%
